Assay results: patent US9662327B2 (AGIOS PHARMACEUTICALS, INC, priority 2011, dated 2017)
pIC50: −log10 of the molar value. Like-named read-outs stand apart in the source and are kept apart here.

Target: IDH1 R132H (Homo sapiens (Human), UniProt O75874, R132H)
Assay: Assays for IDH1 R132H Inhibitors (NADPH/aKG, resazurin detection)
Format: biochemical
Settings: IDH1 R132H enzyme
Procedure, shortened: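 Substrate mix held 8 uM NADPH plus 2 mM aKG; buffer was 20 mM Tris pH 7.5 with 150 mM NaCl, 10 mM MgCl2, 0.03% BSA. After 50 min room-temperature reaction, NADPH remaining was detected with 30 μM resazurin mix over 5 min.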

[1] = Table 2, read-out: IDHR132H Activity

Sequence of IDH1 R132H (O75874 whole entry R132H): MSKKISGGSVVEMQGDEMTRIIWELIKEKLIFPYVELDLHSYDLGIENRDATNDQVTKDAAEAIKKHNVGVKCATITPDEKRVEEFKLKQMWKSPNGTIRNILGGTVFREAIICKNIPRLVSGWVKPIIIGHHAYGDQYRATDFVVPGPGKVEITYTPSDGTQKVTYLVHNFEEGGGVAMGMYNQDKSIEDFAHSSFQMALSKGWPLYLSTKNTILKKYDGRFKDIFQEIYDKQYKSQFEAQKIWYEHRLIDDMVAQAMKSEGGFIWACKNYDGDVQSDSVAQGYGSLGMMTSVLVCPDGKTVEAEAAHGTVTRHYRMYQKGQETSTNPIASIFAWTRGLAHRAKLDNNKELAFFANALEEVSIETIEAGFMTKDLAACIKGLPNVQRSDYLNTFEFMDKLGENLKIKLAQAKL

SMILES	pIC50 [1]	pIC50 (Table 3, read-out: R132H IC50)
C[C@@H]1CN(c2nc(C3CCCCC3)c3c(c2C#N)CCOC3)CCN1C(=O)OCc1ccccc1 [Compound 343, (R)-benzyl 4-(5-cyano-8-cyclohexyl-3,4-dihydro-1H-pyrano[3,4-c]pyridin-6-yl)-2-methylpiperazine-1-carboxylate]	5.00 to 6.00	
CSCCC(=O)N1CCN(c2nc(C3CC3)c3c(c2C#N)CC(C)(C)OC3)C[C@H]1C(C)C [Compound 269, (R)-8-cyclopropyl-6-(3-isopropyl-4-(3-(methylthio)propanoyl)piperazin-1-yl)-3,3-dimethyl-3,4-dihydro-1H-pyrano[3,4-c]pyridine-5-carbonitrile]	> 6.30	
CC(C)c1nc(N2CCN(C(=O)c3cnc4ccccn34)[C@H](C)C2)c(C#N)c2c1COC(C)(C)C2 [Compound 222, (R)-6-(4-(imidazo[1,2-a]pyridine-3-carbonyl)-3-methylpiperazin-1-yl)-8-isopropyl-3,3-dimethyl-3,4-dihydro-1H-pyrano[3,4-c]pyridine-5-carbonitrile]	5.00 to 6.00	
CNC(=O)N1CCN(c2nc(C3CCCCC3)c3c(c2C#N)CCOC3)C[C@H]1C [Compound 357, (R)-4-(5-cyano-8-cyclohexyl-3,4-dihydro-1H-pyrano[3,4-c]pyridin-6-yl)-N,2-dimethylpiperazine-1-carboxamide]	5.00 to 6.00	
CC(C)[C@@H]1CN(c2nc(C3CC3)c3c(c2C#N)CC(C)(C)OC3)CCN1C(=O)NCC1CC1 [Compound 365]	5.00 to 6.00	
CC(C)c1nc(N2CCN(C(=O)Cc3cccc(Cl)c3)[C@H](C)C2)c(C#N)c2c1COC(C)(C)C2 [Compound 161, (R)-6-(4-(2-(3-chlorophenyl)acetyl)-3-methylpiperazin-1-yl)-8-isopropyl-3,3-dimethyl-3,4-dihydro-1H-pyrano[3,4-c]pyridine-5-carbonitrile]	5.00 to 6.00	
CC(C)[C@@H]1CN(c2nc(C3CC3)c3c(c2C#N)CC(C)(C)OC3)CCN1C(=O)CC1CC1 [Compound 382, (R)-8-cyclopropyl-6-(4-(2-cyclopropylacetyl)-3-isopropylpiperazin-1-yl)-3,3-dimethyl-3,4-dihydro-1H-pyrano[3,4-c]pyridine-5-carbonitrile]	> 6.30	
CC(C)c1nc(N2CCN(C(=O)c3csc4ccccc34)[C@H](C)C2)c(C#N)c2c1COC(C)(C)C2 [Compound 247, (R)-6-(4-(benzo[b]thiophene-3-carbonyl)-3-methylpiperazin-1-yl)-8-isopropyl-3,3-dimethyl-3,4-dihydro-1H-pyrano[3,4-c]pyridine-5-carbonitrile]	5.00 to 6.00	
Cc1oncc1C(=O)N1CCN(c2nc(C3CCCCC3)c3c(c2C#N)CCOC3)C[C@H]1C [Compound 187, (R)-8-cyclohexyl-6-(3-methyl-4-(5-methylisoxazole-4-carbonyl)piperazin-1-yl)-3,4-dihydro-1H-pyrano[3,4-c]pyridine-5-carbonitrile]	6.00 to 6.30	
COCCC(=O)N1CCN(c2nc(C3CCC3)c3c(c2C#N)CC(C)(C)OC3)C[C@H]1C(C)C [Compound 395, (R)-8-cyclobutyl-6-(3-isopropyl-4-(3-methoxypropanoyl)piperazin-1-yl)-3,3-dimethyl-3,4-dihydro-1H-pyrano[3,4-c]pyridine-5-carbonitrile]	> 6.30	
CC(C)c1nc(N2CCN(C(=O)Cc3cccs3)[C@H](C(C)C)C2)c(C#N)c2c1COC(C)(C)C2 [Compound 195, (R)-8-isopropyl-6-(3-isopropyl-4-(2-(thiophen-2-yl)acetyl)piperazin-1-yl)-3,3-dimethyl-3,4-dihydro-1H-pyrano[3,4-c]pyridine-5-carbonitrile]	> 6.30	
CC(C)[C@@H]1CN(c2nc(C3CCCCC3)c3c(c2C#N)CCOC3)CCN1C(=O)c1ccco1 [Compound 182, (R)-8-cyclohexyl-6-(4-(furan-2-carbonyl)-3-isopropylpiperazin-1-yl)-3,4-dihydro-1H-pyrano[3,4-c]pyridine-5-carbonitrile]	5.00 to 6.00	
CC(C)[C@@H]1CN(c2nc(C3CC3)c3c(c2C#N)CC(C)(C)OC3)CCN1C(=O)c1cccnc1 [Compound 271]	5.00 to 6.00	
Cc1occc1C(=O)N1CCN(c2nc(C(C)C)c3c(c2C#N)CCOC3)CC1 [Compound 113, 8-isopropyl-6-(4-(2-methylfuran-3-carbonyl)piperazin-1-yl)-3,4-dihydro-1H-pyrano[3,4-c]pyridine-5-carbonitrile]	5.00 to 6.00	
Cc1cncc(C(=O)N2CCN(c3nc(C4CC4)c4c(c3C#N)CC(C)(C)OC4)C[C@H]2C(C)C)c1 [Compound 245, (R)-8-cyclopropyl-6-(3-isopropyl-4-(5-methylnicotinoyl)piperazin-1-yl)-3,3-dimethyl-3,4-dihydro-1H-pyrano[3,4-c]pyridine-5-carbonitrile]	5.00 to 6.00	

Results, then the molecule that gave them:

pIC50 [1]	pIC50 (Table 3, read-out: R132H IC50)	SMILES
5.00 to 6.00		CC[C@@H]1CN(c2nc(C3CC3)c3c(c2C#N)CC(C)(C)OC3)CCN1C(=O)c1cscn1 [Compound 293]
5.00 to 6.00		C=CCNC(=O)N1CCN(c2nc(C3CCCCC3)c3c(c2C#N)CCOC3)CC1C(=O)OCC (centres unmarked) [Compound 330, ethyl 1-(allylcarbamoyl)-4-(5-cyano-8-cyclohexyl-3,4-dihydro-1H-pyrano[3,4-c]pyridin-6-yl)-piperazine-2-carboxylate]
5.00 to 6.00		N#Cc1c(N2CCN(C(=O)c3ccoc3)CC2)nc(C2CCCCC2)c2c1CCOC2 [Compound 120, 8-cyclohexyl-6-(4-(furan-3-carbonyl)piperazin-1-yl)-3,4-dihydro-1H-pyrano[3,4-c]pyridine-5-carbonitrile]
5.00 to 6.00		C[C@@H]1CN(c2nc(C3CC3)c3c(c2C#N)CC(C)(C)OC3)[C@@H](C)CN1C(=O)Cc1cccs1 [Compound 309]
> 6.30		CC(C)[C@@H]1CN(c2nc(C3CC3)c3c(c2C#N)CC(C)(C)OC3)CCN1C(=O)Cc1ccccn1 [Compound 211]
6.00 to 6.30		CCOC(=O)C1CN(c2nc(C(C)C)c3c(c2C#N)CC(C)(C)OC3)CCN1C(=O)Cc1cccs1 (centres unmarked) [Compound 332, ethyl 4-(5-cyano-8-isopropyl-3,3-dimethyl-3,4-dihydro-1H-pyrano[3,4-c]pyridin-6-yl)-1-(2-(thiophen-2-yl)acetyl)piperazine-2-carboxylate]
	> 6.30	CCOCCC(=O)N1CCN(c2nc(C3CC3)c3c(c2C#N)CC(C)(C)OC3)C[C@H]1C(C)C [Compound 459, (R)-8-cyclopropyl-6-(4-(3-ethoxypropanoyl)-3-isopropylpiperazin-1-yl)-3,3-dimethyl-3,4-dihydro-1H-pyrano[3,4-c]pyridine-5-carbonitrile]
5.00 to 6.00		Cc1ccoc1C(=O)N1CCN(c2nc(C3CCCCC3)c3c(c2C#N)CCOC3)CC1 [Compound 129, 8-cyclohexyl-6-(4-(3-methylfuran-2-carbonyl)piperazin-1-yl)-3,4-dihydro-1H-pyrano[3,4-c]pyridine-5-carbonitrile]
6.00 to 6.30		CCOC(=O)C1CN(c2nc(C(C)C)c3c(c2C#N)CC(C)(C)OC3)CCN1C(=O)CCOC (centres unmarked) [Compound 311, ethyl 4-(5-cyano-8-isopropyl-3,3-dimethyl-3,4-dihydro-1H-pyrano[3,4-c]pyridin-6-yl)-1-(3-methoxypropanoyl)piperazine-2-carboxylate]
5.00 to 6.00		CC1(C)Cc2c(C#N)c(N3CCN(C(=O)c4ccoc4)[C@H](c4ccccc4)C3)nc(C3CC3)c2CO1 [Compound 274, (R)-8-cyclopropyl-6-(4-(furan-3-carbonyl)-3-phenylpiperazin-1-yl)-3,3-dimethyl-3,4-dihydro-1H-pyrano[3,4-c]pyridine-5-carbonitrile]
5.00 to 6.00		CC(C)c1nc(N2CCN(C(=O)c3cocn3)[C@H](C)C2)c(C#N)c2c1COC(C)(C)C2 [Compound 198, (R)-8-isopropyl-3,3-dimethyl-6-(3-methyl-4-(oxazole-4-carbonyl)piperazin-1-yl)-3,4-dihydro-1H-pyrano[3,4-c]pyridine-5-carbonitrile]
5.00 to 6.00		CC(C)[C@@H]1CN(c2nc(C3CC3)c3c(c2C#N)CC(C)(C)OC3)CCN1C(=O)Cn1ccnc1 [Compound 374, (R)-6-(4-(2-(1H-imidazol-1-yl)acetyl)-3-isopropylpiperazin-1-yl)-8-cyclopropyl-3,3-dimethyl-3,4-dihydro-1H-pyrano[3,4-c]pyridine-5-carbonitrile]
5.00 to 6.00		CC(C)c1nc(N2CCN(C(=O)Cc3ccccc3)CC2)c(C#N)c2c1COC(C)(C)C2 [Compound 144, 8-isopropyl-3,3-dimethyl-6-(4-(2-phenylacetyl)piperazin-1-yl)-3,4-dihydro-1H-pyrano[3,4-c]pyridine-5-carbonitrile]
5.00 to 6.00		CC1CN(c2nc(C3CC3)c3c(c2C#N)CC(C)(C)OC3)CCN1C(=O)c1ccco1 (centres unmarked) [Compound 135, 8-cyclopropyl-6-(4-(furan-2-carbonyl)-3-methylpiperazin-1-yl)-3,3-dimethyl-3,4-dihydro-1H-pyrano[3,4-c]pyridine-5-carbonitrile]
5.00 to 6.00		Cc1ccc(NC(=O)N2CCN(c3nc(C4CC4)c4c(c3C#N)CC(C)(C)OC4)C[C@H]2C(C)C)cc1 [Compound 301, (R)-4-(5-cyano-8-cyclopropyl-3,3-dimethyl-3,4-dihydro-1H-pyrano[3,4-c]pyridin-6-yl)-2-isopropyl-N-p-tolylpiperazine-1-carboxamide]
	6.00 to 6.30	CC1CCN(c2nc(C3CC3)c3c(c2C#N)CC(C)(C)OC3)CCN1C(=O)C1CC1 (centres unmarked) [Compound 475, 6-(4-(cyclopropanecarbonyl)-5-methyl-1,4-diazepan-1-yl)-8-cyclopropyl-3,3-dimethyl-3,4-dihydro-1H-pyrano[3,4-c]pyridine-5-carbonitrile]
> 6.30		CC(C)[C@@H]1CN(c2nc(C3CC3)c3c(c2C#N)CC(C)(C)OC3)CCN1C(=O)CCl [Compound 317, (R)-6-(4-(2-chloroacetyl)-3-isopropylpiperazin-1-yl)-8-cyclopropyl-3,3-dimethyl-3,4-dihydro-1H-pyrano[3,4-c]pyridine-5-carbonitrile]
